Reference: patent US6596772B1, “Phosphate mimics and methods of treatment using phosphatase inhibitors” (Sugen, Inc., priority 1999, dated 2003)
pIC50: −log10 of the molar value. Where two headings read alike, the source gives them in different places.

Key:
Test in all cases: PTP IC50 assay, pNPP or FDP as substrate
Format in all cases: biochemical
PTP 1B = target: T1, PTP 1B (Homo sapiens, UniProt P18031)
T1 construct: made in house; host or cells: Sf-9 insect cells (pFastBac-G2T)
T1 sequence (P18031 1-435): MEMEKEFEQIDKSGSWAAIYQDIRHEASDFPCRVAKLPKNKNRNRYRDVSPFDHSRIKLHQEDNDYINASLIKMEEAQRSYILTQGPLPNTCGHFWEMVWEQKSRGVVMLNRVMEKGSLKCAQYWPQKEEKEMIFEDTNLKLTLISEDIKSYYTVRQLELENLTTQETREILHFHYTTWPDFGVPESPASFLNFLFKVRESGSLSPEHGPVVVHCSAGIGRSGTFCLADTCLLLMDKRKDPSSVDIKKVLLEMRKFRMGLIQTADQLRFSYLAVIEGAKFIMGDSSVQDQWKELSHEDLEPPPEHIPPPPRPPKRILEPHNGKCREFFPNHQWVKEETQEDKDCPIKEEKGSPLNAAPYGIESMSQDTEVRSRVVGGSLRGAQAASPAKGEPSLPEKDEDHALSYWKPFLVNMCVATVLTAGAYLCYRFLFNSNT
Description: (§1) The following in vitro assay procedure is preferred to determine the level of activity and effect of the different compounds of the present invention on one or more of the PTPs. Similar assays can be designed along the same lines for any PTP using techniques well known in the art.
(§2) The catalytic assays described herein are performed in a 96-well format. The general procedure begins with the determination of PTP optimal pH using a three-component buffer system that minimizes ionic strength variations across a wide range of buffer pH. Next, the Michaelis-Menten constant, or Km, is determined for each specific substrate-PTP system. This Km value is subsequently used as the substrate reaction concentration for compound screening. Finally, the test PTP is exposed to varying concentrations of compound for fifteen minutes and allowed to react with substrate for ten minutes. The results are plotted as percent inhibition versus compound concentration and the IC50 interpolated from the plot.
(§3) All assays were performed using pNPP or FDP as substrate. The optimum pH was determined for each PTP used.
(§4) PTPase activity was assayed at 25° C. in a 100-μl reaction mixture containing an appropriate concentration of pNPP or FDP as substrate. The reaction was initiated by addition of the PTP and quenched after 10 min by addition of 50 μl of IN NaOH. The non-enzymatic hydrolysis of the substrate was corrected by measuring the control without the addition of the enzyme. The amount of p-nitrophenol produced was determined from the absorbance at 410 nm. To determine the kinetic parameter, Km, the initial velocities were measured at various substrate concentrations and the data were fitted to the Michaelis equation where velocity=(Vmax*[S])/(Km+[S]), and [S]=substrate reaction concentration.
(§5) The effect of the compounds on PTP was evaluated at 25° C. using pNPP or FDP as substrate. PTP was pre-incubated for fifteen minutes with various concentrations of compound. Substrate was then added at a fixed concentration (usually equal to the Km previously calculated). After 10 minutes, NaOH was added to stop the reaction. The hydrolysis of pNPP was followed at 410 nm on the Biotek Powerwave 200 microplate scanning spectrophotometer. The percent inhibition was calculated as follows: Percent Inhibition=[(control signal−compound signal)/control signal] ×100%. The IC50 was then determined by interpolation of a percent inhibition versus compound concentration plot.
(§6) Plasmids designed for bacterial GST-PTP fusion protein expression were derived by insertion of PCR-generated human PTP fragments into pGEX vectors (Pharmacia Biotech). Several of these constructs were then used to subclone phosphatases into pFastBac-1for expression in Sf-9 insect cells. Oligonucleotides used for the initial amplification of PTP genes are shown below. The cDNAs were prepared using the Gilbo BRL superscript preamplification system on RNAs purchased from Clontech.
The PTP1b cDNA was amplified from human placenta single strand cDNA (Clontech RNA) using the following oligonucleotides: 5′oligo: 5′-[…] (SEQ ID NO: 4) 3′oligo: 5′-[…] (SEQ ID NO: 5) It was subsequently ligated into pFasBac G2TBamH1Xba-1 sites.

PTP SIGMA = target: T2, PTP SIGMA (Homo sapiens, UniProt Q13332)
T2 construct: made in house; host or cells: E. coli BL-21 (pGEX 6P-1)
T2 sequence (Q13332 1320-1660 limits assumed): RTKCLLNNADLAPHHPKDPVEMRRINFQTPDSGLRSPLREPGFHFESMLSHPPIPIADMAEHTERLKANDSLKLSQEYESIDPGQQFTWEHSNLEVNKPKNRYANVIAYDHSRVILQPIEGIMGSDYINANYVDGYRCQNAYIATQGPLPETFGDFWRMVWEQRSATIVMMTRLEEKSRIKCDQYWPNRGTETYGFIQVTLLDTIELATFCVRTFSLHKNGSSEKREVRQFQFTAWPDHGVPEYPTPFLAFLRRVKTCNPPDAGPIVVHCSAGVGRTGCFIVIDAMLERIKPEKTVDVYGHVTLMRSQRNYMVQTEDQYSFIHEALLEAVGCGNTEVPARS
Description: as §1, §2, §3, §4, §5, §6
The PTP Sigma cDNA was amplified from human brain single strand cDNA (Clontech RNA) using the following oligonucleotides: 5′oligo: 5′-[…]-3′ (SEQ ID NO: 12) 3′oligo: 5′-[…]-3′ (SEQ ID NO: 13) and subsequently ligated into pGex 6P-1 Eco RI/Xho I sites.

PTP MU = target: T3, PTP MU (Homo sapiens, UniProt P28827)
T3 construct: made in house; host or cells: E. coli BL-21 (pGEX 6P-1)
T3 sequence (P28827 831-1186 limits assumed): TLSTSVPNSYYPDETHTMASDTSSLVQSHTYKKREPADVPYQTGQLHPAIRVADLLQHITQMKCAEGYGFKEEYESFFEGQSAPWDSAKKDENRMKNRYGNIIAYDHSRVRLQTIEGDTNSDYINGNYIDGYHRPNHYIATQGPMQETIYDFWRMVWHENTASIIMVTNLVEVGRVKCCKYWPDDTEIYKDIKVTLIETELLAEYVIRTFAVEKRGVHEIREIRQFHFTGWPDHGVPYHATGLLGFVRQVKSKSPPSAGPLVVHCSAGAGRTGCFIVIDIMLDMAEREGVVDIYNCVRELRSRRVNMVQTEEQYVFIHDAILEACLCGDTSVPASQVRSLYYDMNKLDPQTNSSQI

[1] = pNPP or FDP as substrate, 25° C., read-out: PTP IC50 1B
[2] = pNPP or FDP as substrate, 25° C., read-out: PTP IC50 Sigma
[3] = pNPP or FDP as substrate, 25° C., read-out: PTP IC50 Mu

Structure (SMILES)	pIC50 (PTP 1B; [1])	pIC50 (PTP SIGMA; [2])	pIC50 (PTP MU; [3])	pIC50 (PTP 1B; comparison of R groups, read-out: IC50 1B)	pIC50 (PTP SIGMA; comparison of R groups, read-out: IC50 Sigma)	pIC50 (PTP MU; comparison of R groups, read-out: IC50 Mu)
O=S(=O)(Nc1ccc(Oc2cccc(Oc3ccc(NS(=O)(=O)C(F)(F)F)cc3)c2)cc1)C(F)(F)F [Example 74, 1,3-Bis(4-trifluoromethylsulfonamidophenoxy)benzene]	5.11	5.12	5.41	–	–	–
O=S(=O)(Nc1ccc(-c2nnc(-c3ccc(NS(=O)(=O)C(F)(F)F)cc3)o2)cc1)C(F)(F)F [Example 75, 2,5-Bis(4-trifluoromethylsulfonamidophenyl)-(1,3,4)oxadiazole]	5.08	4.88	4.49	–	–	–
CC(C)(c1ccc(NS(=O)(=O)C(F)(F)F)cc1)c1ccc(C(C)(C)c2ccc(NS(=O)(=O)C(F)(F)F)cc2)cc1 [Example 76]	5.60	4.70	5.17	–	–	–
Nc1ccc(Oc2ccc(Oc3ccc(N)cc3)cc2)cc1 [NH2]	–	–	–	< 4.00	< 4.00	< 4.00
